Laboratory results taken from ChEMBL document CHEMBL4373734, “Overcoming imatinib resistance in chronic myelogenous leukemia cells using non-cytotoxic cell death modulators” (Eur J Med Chem, 2020).
Calls of active or inactive are those of the source. The rule behind the calls is not given here.

Experiments:
[1] = biological target: T1, Peroxisome proliferator-activated receptor gamma (Homo sapiens) (UniProt P37231); assay: Transactivation of Gal4-fused human PPARgamma transfected in COS7 cells co-transfected with pGAL5-TK-pGL3 and pRennilla-CMV assessed as maximum intrinsic activation at 10 uM incubated for 39 hrs by dual luciferase reporter assay relative to pioglitazone; assay type: cell-based
T1 sequence (whole entry): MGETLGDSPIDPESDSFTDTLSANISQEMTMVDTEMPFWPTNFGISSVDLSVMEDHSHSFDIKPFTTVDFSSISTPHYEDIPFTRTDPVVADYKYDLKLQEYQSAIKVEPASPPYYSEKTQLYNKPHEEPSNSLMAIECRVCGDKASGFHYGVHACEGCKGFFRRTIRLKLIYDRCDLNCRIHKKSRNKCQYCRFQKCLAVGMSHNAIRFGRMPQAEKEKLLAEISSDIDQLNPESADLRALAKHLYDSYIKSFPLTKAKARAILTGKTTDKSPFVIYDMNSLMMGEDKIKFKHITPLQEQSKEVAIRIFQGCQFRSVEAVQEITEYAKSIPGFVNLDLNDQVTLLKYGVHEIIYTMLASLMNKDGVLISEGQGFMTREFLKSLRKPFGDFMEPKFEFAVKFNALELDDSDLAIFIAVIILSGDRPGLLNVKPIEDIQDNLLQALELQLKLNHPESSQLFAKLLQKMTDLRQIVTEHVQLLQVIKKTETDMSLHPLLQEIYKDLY

K562-IMA[r] [2] = assay: Induction of sensitization to imatinib-induced cytotoxicity in imatinib-resistant human K562-IMA[r] cells assessed as induction of cell death at 10 uM after 72 hrs in presence of 1 uM imatinib by propidium iodide/Triton-X100 dye based FACS analysis; assay type: functional
K562-IMA[r] [3] = assay: Cytotoxicity against imatinib-resistant human K562-IMA[r] cells assessed as cell death at 10 uM after 72 hrs by propidium iodide/Triton-X100 dye based FACS analysis
[4] = Cytotoxicity against human HS5 cells assessed as cell death at 10 uM after 72 hrs by propidium iodide/Triton-X100 dye based FACS analysis
K562 = assay: Cytotoxicity against human K562 cells assessed as cell death at 10 uM after 72 hrs by propidium iodide/Triton-X100 dye based FACS analysis; conditions: k562, 72 h
COS-7 = assay: Cytotoxicity against African green monkey COS7 cells assessed as effect on cell metabolic activity at 20 uM after 72 hrs by MTT assay; assay type: ADME, cell-based; conditions: chlorocebus aethiops, cos-7, 72 h
[5] = Solubility of compound in DMSO at 10 uM by microscopic analysis; assay type: physicochemical
[6] = Solubility of compound in water at >20 uM; assay type: physicochemical; conditions: buffer
[7] = biological target: T1, Peroxisome proliferator-activated receptor gamma (Homo sapiens); assay: Transactivation of Gal4-fused human PPARgamma transfected in COS7 cells co-transfected with pGAL5-TK-pGL3 and pRennilla-CMV assessed as maximum intrinsic activation at 20 uM incubated for 39 hrs by dual luciferase reporter assay; assay type: cell-based
K562-IMA[r] [8] = assay: Cytotoxicity against imatinib-resistant human K562-IMA[r] cells assessed as induction of cell death at 10 uM after 72 hrs by propidium iodide/Triton-X100 dye based FACS analysis relative to control
K562-IMA[r] [9] = assay: Induction of sensitization to imatinib induced cytotoxicity in imatinib-resistant human K562-IMA[r] cells assessed as cell death up to 2.5 uM measured after 72 hrs in presence of 1 uM imatinib by propidium iodide/Triton-X100 dye based FACS analysis; assay type: functional
K562-IMA[r] [10] = assay: Induction of sensitization to imatinib-induced cytotoxicity in imatinib-resistant human K562-IMA[r] cells assessed as gain in cell death rate at 5 uM measured after 72 hrs in presence of 1 uM imatinib by propidium iodide/Triton-X100 dye based FACS analysis relative to imatinib-treated control; assay type: functional
K562-IMA[r] [11] = assay: Induction of sensitization to imatinib-induced cytotoxicity in imatinib-resistant human K562-IMA[r] cells assessed as induction of cell death at 10 uM after 72 hrs in presence of 1 uM imatinib by propidium iodide/Triton-X100 dye based FACS analysis (reference value: 15%); assay type: functional
K562-IMA[r] [12] = assay: Induction of sensitization to imatinib-induced cytotoxicity in imatinib-resistant human K562-IMA[r] cells assessed as induction of cell death measured after 72 hrs in presence of 1 uM imatinib by propidium iodide/Triton-X100 dye based FACS analysis; assay type: functional
[13] = biological target: T2, Peroxisome proliferator-activated receptor gamma (Homo sapiens, UniProt P37231); assay: Transactivation of Gal4-fused human PPARgamma transfected in COS7 cells co-transfected with pGAL5-TK-pGL3 and pRennilla-CMV incubated for 39 hrs by dual luciferase reporter assay; assay type: cell-based
T2 sequence (P37231 whole entry): T1 sequence (whole entry)

[14] = biological target: T1, Peroxisome proliferator-activated receptor gamma (Homo sapiens); assay: Transactivation of Gal4-fused human PPARgamma transfected in COS7 cells co-transfected with pGAL5-TK-pGL3 and pRennilla-CMV at 20 uM incubated for 39 hrs by dual luciferase reporter assay; assay type: cell-based

| Compound | Intrinsic activity [1] | Activity (K562-IMA[r] [2]) | Activity (K562-IMA[r] [3]) | Activity [4] | Activity (K562) | Activity (COS-7) | solubility [5] | solubility [6] | Intrinsic activity [7] | Activity (K562-IMA[r] [8]) | Activity (K562-IMA[r] [9]) | Activity (K562-IMA[r] [10]) | Activity (K562-IMA[r] [11]) | Activity (K562-IMA[r] [12]) | EC50 [13] | Activity [14] |
| --- | --- | --- | --- | --- | --- | --- | --- | --- | --- | --- | --- | --- | --- | --- | --- | --- |
| CCCc1nc2c(O)cccc2n1Cc1ccc(-c2ccccc2C(=O)O)cc1 | 14.4% | Active | Non-Toxic | Non-Toxic | Non-Toxic | Non-Toxic | Soluble | – | – | – | – | – | – | – | – | – |
| CCCc1nc2c([N+](=O)[O-])cccc2n1Cc1ccc(-c2ccccc2C(=O)O)cc1 | 0.42% | Active | Non-Toxic | Non-Toxic | Non-Toxic | Non-Toxic | Soluble | – | – | – | – | – | – | – | – | – |
| CCCc1nc2c(C(F)(F)F)cccc2n1Cc1ccc(-c2ccccc2C(N)=O)cc1 | 19.5% | – | – | Non-Toxic | Non-Toxic | Non-Toxic | Soluble | Insoluble | inactive | < 20% | inactive | 7.1% | 62 - 78% | Dose-dependent effect | – | – |
| CCCc1nc2c(F)cccc2n1Cc1ccc(-c2ccccc2C(=O)O)cc1 | 44.2% | Active | Non-Toxic | Non-Toxic | Non-Toxic | Non-Toxic | Soluble | – | – | – | – | – | – | – | 8.66 µM | Active |
| CCCc1nc2c(Cl)cccc2n1Cc1ccc(-c2ccccc2C(N)=O)cc1 | 21.1% | – | – | Non-Toxic | Non-Toxic | Non-Toxic | Soluble | Insoluble | inactive | < 20% | inactive | 15.3% | 62 - 78% | Dose-dependent effect | – | – |
| CCCc1nc2ccccc2n1Cc1ccc(-c2ccccc2C(=O)O)cc1 | 58.5% | Active | Non-Toxic | Non-Toxic | Non-Toxic | Non-Toxic | Soluble | – | – | – | – | – | – | – | 7.22 µM | Active |
| CCCc1nc2c(C)cccc2n1Cc1ccc(-c2ccccc2C(=O)O)cc1 | 54.3% | Active | Non-Toxic | Non-Toxic | Non-Toxic | Non-Toxic | Soluble | – | – | – | – | – | – | – | 11.1 µM | – |
| CCCc1nc2c(OC)cccc2n1Cc1ccc(-c2ccccc2C(=O)O)cc1 | 17.9% | Active | Non-Toxic | Non-Toxic | Non-Toxic | Non-Toxic | Soluble | – | – | – | – | – | – | – | – | – |
| CCCc1nc2c(C(F)(F)F)cccc2n1Cc1ccc(-c2ccccc2C(=O)O)cc1 | 29.5% | Active | Non-Toxic | Non-Toxic | Non-Toxic | Non-Toxic | Soluble | – | – | – | – | – | – | – | 12.1 µM | – |
| CCCc1nc2c([N+](=O)[O-])cccc2n1Cc1ccc(-c2ccccc2C(N)=O)cc1 | 7.15% | Active | Non-Toxic | Non-Toxic | Non-Toxic | Non-Toxic | Soluble | Insoluble | inactive | – | – | – | – | – | – | – |
| CCCc1nc2c(OC)cccc2n1Cc1ccc(-c2ccccc2C(N)=O)cc1 | 13.3% | Active | Non-Toxic | Non-Toxic | Non-Toxic | Non-Toxic | Soluble | Insoluble | inactive | – | – | – | – | – | – | – |
| CCCc1nc2c(N)cccc2n1Cc1ccc(-c2ccccc2C(N)=O)cc1 | 25.1% | Active | Non-Toxic | Non-Toxic | Non-Toxic | Non-Toxic | Soluble | Insoluble | inactive | – | – | – | – | – | – | – |
| CCCc1nc2c(F)cccc2n1Cc1ccc(-c2ccccc2C(N)=O)cc1 | 33.3% | – | – | Non-Toxic | Non-Toxic | Non-Toxic | Soluble | Insoluble | inactive | < 20% | inactive | 8.1% | 62 - 78% | Dose-dependent effect | – | – |
| CCCc1nc2c(C)cc(-c3nc4ccccc4n3C)cc2n1Cc1ccc(-c2ccccc2C(=O)O)cc1 [TELMISARTAN] | 59.1% | Active | – | – | – | – | – | – | 78% | – | – | – | – | – | 4.28 µM | – |
| CCCc1nc2c(Br)cccc2n1Cc1ccc(-c2ccccc2C(=O)O)cc1 | 44.9% | Active | Non-Toxic | Non-Toxic | Non-Toxic | Non-Toxic | Soluble | – | – | – | – | – | – | – | 8.25 µM | Active |
| CCCc1nc2c(C)cccc2n1Cc1ccc(-c2ccccc2C(N)=O)cc1 | 19.6% | – | – | Non-Toxic | Non-Toxic | Non-Toxic | Soluble | Insoluble | inactive | < 20% | inactive | 11.2% | 62 - 78% | Dose-dependent effect | – | – |
| CCCc1nc2c(Cl)cccc2n1Cc1ccc(-c2ccccc2C(=O)O)cc1 | 44% | Active | Non-Toxic | Non-Toxic | Non-Toxic | Non-Toxic | Soluble | – | – | – | – | – | – | – | 8.67 µM | Active |
| CCCc1nc2c(N)cccc2n1Cc1ccc(-c2ccccc2C(=O)O)cc1 | 15.7% | Active | Non-Toxic | Non-Toxic | Non-Toxic | Non-Toxic | Soluble | – | – | – | – | – | – | – | – | – |
| CCCc1nc2c(O)cccc2n1Cc1ccc(-c2ccccc2C(N)=O)cc1 | 20.5% | Active | Non-Toxic | Non-Toxic | Non-Toxic | Non-Toxic | Soluble | Insoluble | inactive | – | – | – | – | – | – | – |
